Results from patent US5670667A, “Chroman-2-ylmethylamino derivatives” (American Home Products Corporation, priority 1996, dated 1997).

Tests used:
5-HT1a = molecular target: T1, 5-HT1a (Homo sapiens, UniProt P08908); assay: biochemical; format: binding
T1 sequence (P08908 1-422): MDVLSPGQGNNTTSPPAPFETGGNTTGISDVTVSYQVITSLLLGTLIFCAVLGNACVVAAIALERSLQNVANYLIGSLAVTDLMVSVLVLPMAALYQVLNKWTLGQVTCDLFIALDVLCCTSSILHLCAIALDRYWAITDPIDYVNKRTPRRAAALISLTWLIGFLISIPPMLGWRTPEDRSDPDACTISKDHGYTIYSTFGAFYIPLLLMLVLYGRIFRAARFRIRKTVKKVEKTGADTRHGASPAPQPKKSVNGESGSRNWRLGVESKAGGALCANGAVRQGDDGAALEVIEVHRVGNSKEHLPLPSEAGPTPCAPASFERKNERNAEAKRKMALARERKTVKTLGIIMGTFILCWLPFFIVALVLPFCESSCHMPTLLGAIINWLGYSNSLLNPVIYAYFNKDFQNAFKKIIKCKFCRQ

α1 = α1 IC50; format: binding

Q: Which results are given for `Oc1ccc2c(c1)OC(CNCc1ccccc1)CC2` (centres unmarked) [Example 1f, 2-(Benzylamino-methyl)-chroman-7-ol]?
A: IC50 (5-HT1a): 104 nM; IC50 (α1): 1140 nM

Q: How did the IC50 (α1) turn out when `Fc1ccc(CNCC2CCc3ccccc3O2)cc1` (centres unmarked) [reference compound] was run?
A: The IC50 was 1280 nM.

Q: With `c1ccc(CNCC2CCc3ccccc3O2)cc1` (centres unmarked) [reference compound] as the compound, how does the IC50 (α1) read?
A: The IC50 was 630 nM.

Q: With `Oc1ccc2c(c1)OC(CNCCCCc1ccccc1)CC2` (centres unmarked) [Example 1m, 2-[(4-Phenyl-butylamino)-methyl]-chroman-7-ol] as the compound, how does the IC50 (α1) read?
A: Its IC50 is 80 nM.
